Measured values reported in the NIST ThermoML archive (doi:10.1016/j.jct.2019.03.018).
± gives the expanded uncertainty stated by the source.

Conditions: Liquid; Ebulliometric method (Recirculating still)

| Normal boiling temperature [°C] | Structure (SMILES) |
| --- | --- |
| 68.57 ± 0.7 | CC(C)OC(C)C [diisopropyl ether] |
| 96.8 ± 0.7 | CCCO [propan-1-ol] |
| 82.18 ± 0.7 | CC(C)O [propan-2-ol] |
| 131.89 ± 0.7 | CCOCC(C)O (centres undefined) [1-ethoxy-2-propanol] |
